{"source": "PubChem BioAssay (NCI)", "note": "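Assay format: 96-well plates, 48-hour exposure. TGI is the concentration that stops growth completely.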", "data": [{"test_system": "TK-10 renal", "experiment": "growth of human tumour cells (NCI), 48 h", "units": {"TGI": "µM"}, "values": [{"compound": "O=C1/C(=C/c2ccco2)NC(=S)N1CN1CCCCC1", "TGI": "> 100"}, {"compound": "Nc1nc(Cl)cc(OCC2(CO)CC=CC2)n1", "TGI": "> 100"}, {"compound": "CCOC(=O)CCCSCCCC(=O)CCCSCCCC(=O)OCC", "TGI": "> 100"}, {"compound": "CC(C)=C[C@H]1C[C@H](C)[C@H]2CC[C@H](C)c3c2c1c(C)c1ncoc31", "TGI": 31.7}, {"compound": "O=C1/C(=C\\c2ccc(Cl)cc2Cl)Sc2scc(-c3ccc(O)c(O)c3)[n+]21", "TGI": 38.8}, {"compound": "CCOC(=O)C(=[N+]=[N-])C(=O)CN1C(=O)c2ccccc2C1=O", "TGI": "> 100"}]}, {"test_system": "SN12C renal", "experiment": "growth of human tumour cells (NCI), 48 h", "units": {"TGI": "µM"}, "values": [{"compound": "CCCCCCc1cc2cc(-c3cn4ccsc4n3)c(=O)oc2cc1O", "TGI": "> 100"}, {"compound": "COC(=O)[C@]1(C)CCC[C@@]2(C)C1CC[C@@]13C=C(C(C)C)[C@@H](CC1=O)CC23", "note": "(stereo not given in full)", "TGI": 41.2}, {"compound": "Cc1nn(C(=O)Cc2ccccc2)c2c1C(c1ccccc1)SC(N)=N2", "note": "(stereo not given)", "TGI": "> 100"}, {"compound": "CCNC(=O)c1ccc(C)c(N=NN(C)C)c1", "TGI": "> 100"}, {"compound": "C=CCNC(=S)N/C=C(\\C#N)C(N)=O", "TGI": "> 100"}, {"compound": "CCOC(=O)c1cc(-c2ccc(OC)cc2)c([N+](=O)[O-])n1C", "TGI": "> 10"}, {"compound": "COc1ccc(C2=CC(C(C)=C(C(N)=O)C(N)=O)C=C(c3ccc(Br)cc3)C2)c(OC)c1", "note": "(stereo not given)", "TGI": "> 100"}, {"compound": "O=C1c2sc(-c3ccc(Cl)cc3)cc2-n2cccc21", "TGI": "> 100"}, {"compound": "CC(C)C(NC(=O)Oc1ccccc1)C(=O)NC1c2c(Br)sc(Br)c2C(=O)C1O", "note": "(stereo not given)", "TGI": 10.8}, {"compound": "COCCOCOC(CCCCO)c1cc(C)c(O[Si](C)(C)C(C)(C)C)c(C)c1", "note": "(stereo not given)", "TGI": 8.73}, {"compound": "CSC(=O)c1sc(SC)[n+](-c2ccccc2)c1O", "TGI": 38.8}, {"compound": "CC(=O)OCCOCNC(=S)N/N=C/c1ccc([N+](=O)[O-])o1", "TGI": "> 100"}, {"compound": "COc1cc2c(/C=C3/C(=O)Nc4cccc(Cl)c43)c(Cl)[nH]c2cc1C", "TGI": 3.33}, {"compound": "Nc1ncc2c(n1)-c1ccccc1OC2N1CCCCC1", "note": "(stereo not given)", "TGI": "> 100"}, {"compound": "COc1cc(C2C(Cl)C(=O)N2n2cnc3ccccc3c2=O)ccc1O", "note": "(stereo not given)", "TGI": "> 100"}, {"compound": "C[C@]12c3c4cc(NC(=O)C(=O)NCc5ccc(-c6ccccn6)nc5)cc3Oc3cc(NC(=O)C(=O)NCc5ccc(-c6ccccn6)nc5)cc(c31)OC1C=C(NC(=O)C(=O)NCc3ccc(-c5ccccn5)nc3)C=C(O4)C12", "note": "(stereo not given in full)", "TGI": "> 100"}, {"compound": "COc1ccc(C2Oc3cc(OC)c(OC)cc3C2CCl)cc1OC", "note": "(stereo not given)", "TGI": "> 100"}, {"compound": "COC(=O)c1cccc(C)c1C1CN=NC12Cc1cc(C)cc(C)c1C2=O", "note": "(stereo not given)", "TGI": "> 100"}, {"compound": "O=C1c2ccccc2-n2nnnc2C2CSCN12", "note": "(stereo not given)", "TGI": "> 100"}, {"compound": "O=c1[nH]c(=O)c2c3n(cc2[nH]1)CCCCC3", "TGI": "> 100"}, {"compound": "COc1ccc(NC(=S)c2ccc(CN3CCCCC3)s2)cc1", "TGI": "> 100"}, {"compound": "Cc1ccc(S[C@@H](C)[C@@](O)(CF)CN(Cc2ccccc2)C(=O)C(F)(F)F)cc1", "TGI": 33.5}, {"compound": "CCN(CC)CCCNC(=O)c1cc(-c2nccn2C)nc2ccccc12", "TGI": "> 100"}, {"compound": "O=C1/C(=C/c2ccco2)NC(=S)N1CN1CCCCC1", "TGI": "> 100"}, {"compound": "Nc1nc(Cl)cc(OCC2(CO)CC=CC2)n1", "TGI": "> 100"}, {"compound": "CCOC(=O)CCCSCCCC(=O)CCCSCCCC(=O)OCC", "TGI": "> 100"}, {"compound": "CC(C)=C[C@H]1C[C@H](C)[C@H]2CC[C@H](C)c3c2c1c(C)c1ncoc31", "TGI": 35.6}, {"compound": "O=C1/C(=C\\c2ccc(Cl)cc2Cl)Sc2scc(-c3ccc(O)c(O)c3)[n+]21", "TGI": 30.3}, {"compound": "CCOC(=O)C(=[N+]=[N-])C(=O)CN1C(=O)c2ccccc2C1=O", "TGI": "> 100"}]}, {"test_system": "NCI-H23 lung", "experiment": "growth of human tumour cells (NCI), 48 h", "units": {"TGI": "µM"}, "values": [{"compound": "CCCCCCc1cc2cc(-c3cn4ccsc4n3)c(=O)oc2cc1O", "TGI": "> 100"}, {"compound": "COC(=O)[C@]1(C)CCC[C@@]2(C)C1CC[C@@]13C=C(C(C)C)[C@@H](CC1=O)CC23", "note": "(stereo not given in full)", "TGI": "> 100"}, {"compound": "Cc1nn(C(=O)Cc2ccccc2)c2c1C(c1ccccc1)SC(N)=N2", "note": "(stereo not given)", "TGI": "> 100"}, {"compound": "CCNC(=O)c1ccc(C)c(N=NN(C)C)c1", "TGI": "> 100"}, {"compound": "C=CCNC(=S)N/C=C(\\C#N)C(N)=O", "TGI": "> 100"}, {"compound": "CCOC(=O)c1cc(-c2ccc(OC)cc2)c([N+](=O)[O-])n1C", "TGI": "> 10"}, {"compound": "COc1ccc(C2=CC(C(C)=C(C(N)=O)C(N)=O)C=C(c3ccc(Br)cc3)C2)c(OC)c1", "note": "(stereo not given)", "TGI": "> 100"}, {"compound": "CC(C)C(NC(=O)Oc1ccccc1)C(=O)NC1c2c(Br)sc(Br)c2C(=O)C1O", "note": "(stereo not given)", "TGI": 8.41}, {"compound": "COCCOCOC(CCCCO)c1cc(C)c(O[Si](C)(C)C(C)(C)C)c(C)c1", "note": "(stereo not given)", "TGI": 18.7}, {"compound": "CSC(=O)c1sc(SC)[n+](-c2ccccc2)c1O", "TGI": 39.7}, {"compound": "CC1=NN(c2nc(N)nc(COc3ccc(N)cc3)n2)C(C)(C)C1", "TGI": "> 100"}, {"compound": "Cc1cc(OC(=O)Nc2cccc3ccccc23)c(C(C)C)cc1C(=S)Nc1ccccc1", "TGI": 34.3}, {"compound": "CC(=O)OCCOCNC(=S)N/N=C/c1ccc([N+](=O)[O-])o1", "TGI": "> 100"}, {"compound": "COc1cc2c(/C=C3/C(=O)Nc4cccc(Cl)c43)c(Cl)[nH]c2cc1C", "TGI": 9.36}, {"compound": "Nc1ncc2c(n1)-c1ccccc1OC2N1CCCCC1", "note": "(stereo not given)", "TGI": "> 100"}, {"compound": "COc1cc(C2C(Cl)C(=O)N2n2cnc3ccccc3c2=O)ccc1O", "note": "(stereo not given)", "TGI": "> 100"}, {"compound": "COC(=O)c1cccc(C)c1C1CN=NC12Cc1cc(C)cc(C)c1C2=O", "note": "(stereo not given)", "TGI": "> 100"}, {"compound": "COc1cc(OCCN(C)C)c2[nH]c(C(=O)N3CC(CCl)c4ccc(N)cc43)cc2c1", "note": "(stereo not given)", "TGI": 0.316}, {"compound": "O=c1[nH]c(=O)c2c3n(cc2[nH]1)CCCCC3", "TGI": "> 100"}, {"compound": "COc1ccc(NC(=S)c2ccc(CN3CCCCC3)s2)cc1", "TGI": 29.5}]}]}
